Here are results for 5 molecules from ChEMBL document CHEMBL3992487 (Medchemcomm, 2016).

The nature of data set [1]: Dissociation constant, pKa of the compound. In kind it is physicochemical.
Data set [2] can be described thus: Clearance in rat blood. It counts as ADME.
Data set [3] in a line: Oral bioavailability in rat. To be noted: in vivo. It counts as ADME, organism-based.
Data set [4] can be described thus: Intrinsic clearance in human hepatocytes assessed per million cells. It counts as ADME, cell-based, Hepatocyte. To be noted: read-out: CLH.
Data set [5] can be described thus: Intrinsic clearance in human liver microsomes. It counts as ADME, microsome. To be noted: read-out: CLH.

In turn, `NC1(Cc2nc(-c3ccc(OC(F)(F)F)cc3)c[nH]2)COC1` displayed a pKa in data set [1] of 6.4. In data set [2], the clearance is 5 mL/min/kg. Besides, the bioavailability in data set [3] was 49 to 52%.
Molecule `NC(CF)(CF)c1nc(-c2ccc(OC(F)(F)F)cc2)c[nH]1` returned a pKa in data set [1] of 5.9.
`COC[C@@](C)(N)c1nc(-c2ccc(OC(F)(F)F)cc2)c[nH]1` yielded a pKa in data set [1] of 7.1.
For the molecule `C[C@](N)(CF)c1nc(-c2ccc(OC(F)(F)F)cc2)c[nH]1`, in data set [1], the pKa was 6.4.
With `CC(C)(N)c1nc(-c2ccc(OC(F)(F)F)cc2)c[nH]1`, the pKa in data set [1] was determined as 7.9. Further, the hepatocyte CLint in data set [4] is < 6 µL/min/1e6 cells. Besides, the microsomal CLint in data set [5] is 8 µL/min/mg.

Usually pKa stands for the pH at which an ionisable group is half protonated. In general, clearance refers to a measure of how efficiently the substance is removed, as volume per time. Read a high clearance as a high capacity for elimination. By bioavailability is commonly meant the share of a dose that reaches the circulation, judged against a reference dose that is usually intravenous.
